From ChEMBL document CHEMBL4265935, “Synthesis and evaluation of novel arctigenin derivatives as potential anti-Toxoplasma gondii agents” (Eur J Med Chem, 2018)
Active and inactive are the calls of the source. The calls are words filed in the database; no cut-off is given here.

What was measured:
Toxoplasma gondii [1] = assay: Antiparasitic activity against Toxoplasma gondii RH tachyzoites by MTT assay; assay type: functional, organism-based
HeLa = assay: Cytotoxicity against human HeLa cells assessed as reduction in cell viability by MTT assay; assay type: cell-based
[2] = Selectivity index, ratio of IC50 for human HeLa cells to ratio of IC50 for Toxoplasma gondii RH tachyzoites; assay type: toxicity; settings: HeLa cells versus Toxoplasma gondii RH tachyzoites, read-out: Ratio IC50
Toxoplasma gondii [3] = assay: Antiparasitic activity against Toxoplasma gondii RH tachyzoites infected in human HeLa cells assessed as cell survival at 100 uM after 24 hrs by trypan blue assay (reference value: 20.8%); assay type: functional
Toxoplasma gondii [4] = assay: Antiparasitic activity against Toxoplasma gondii RH infected in Kunming mouse assessed as inhibition of number of intraperitoneal tachyzoite in abdominal cavity at 100 mg/kg, po qd administered via gavage for 4 consecutive days measured on day 5 by light microscopic analysis relative to control; assay type: functional; settings: 120 h
Toxoplasma gondii [5] = assay: Antiparasitic activity against Toxoplasma gondii RH infected in Kunming mouse assessed as improvement of hepatomegaly at 100 mg/kg, po qd administered via gavage for 4 consecutive days measured on day 5; assay type: functional, organism-based
Toxoplasma gondii [6] = assay: Antiparasitic activity against Toxoplasma gondii RH infected in Kunming mouse assessed as improvement of splenomegaly at 100 mg/kg, po qd administered via gavage for 4 consecutive days measured on day 5; assay type: functional, organism-based
Toxoplasma gondii [7] = assay: Antiparasitic activity against Toxoplasma gondii RH infected in Kunming mouse assessed as reduction in serum ALT level at 100 mg/kg, po qd administered via gavage for 4 consecutive days measured on day 5; assay type: functional, organism-based
Toxoplasma gondii [8] = assay: Antiparasitic activity against Toxoplasma gondii RH infected in Kunming mouse assessed as reduction in serum AST level at 100 mg/kg, po qd administered via gavage for 4 consecutive days measured on day 5; assay type: functional, organism-based
Toxoplasma gondii [9] = assay: Antiparasitic activity against Toxoplasma gondii RH infected in Kunming mouse assessed as increase in GSH level in liver at 100 mg/kg, po qd administered via gavage for 4 consecutive days measured on day 5; assay type: functional, organism-based
Toxoplasma gondii [10] = assay: Antiparasitic activity against Toxoplasma gondii RH infected in Kunming mouse assessed as decrease in GSH level in liver at 100 mg/kg, po qd administered via gavage for 4 consecutive days measured on day 5; assay type: functional, organism-based
Toxoplasma gondii [11] = assay: Antiparasitic activity against Toxoplasma gondii RH infected in Kunming mouse assessed as increase in body weight at 100 mg/kg, po qd administered via gavage for several consecutive days; assay type: functional, organism-based
Toxoplasma gondii [12] = assay: Antiparasitic activity against Toxoplasma gondii RH infected in Kunming mouse assessed as survival rate at 100 mg/kg, po qd administered via gavage for several consecutive days measured on day 20 relative to control; assay type: functional; settings: 480 h
Toxoplasma gondii [13] = assay: Antiparasitic activity against Toxoplasma gondii RH infected in Kunming mouse assessed as increase in survival rate by measuring mortality day at 100 mg/kg, po qd administered via gavage for several consecutive days measured on day 10 (reference value: 9 to 11 days); assay type: functional
Toxoplasma gondii [14] = assay: Antiparasitic activity against Toxoplasma gondii RH tachyzoites infected in human HeLa cells assessed as increase in cell survival at 100 uM after 24 hrs by trypan blue assay relative to spiramycin; assay type: functional
Toxoplasma gondii [15] = assay: Antiparasitic activity against Toxoplasma gondii RH tachyzoites infected in human HeLa cells assessed as decrease in cell shrinkage at 100 uM after 24 hrs by inverted optical microscopic analysis; assay type: functional, organism-based
Toxoplasma gondii [16] = assay: Antiparasitic activity against Toxoplasma gondii RH tachyzoites infected in human HeLa cells assessed as decrease in number of cell death at 100 uM after 24 hrs by inverted optical microscopic analysis; assay type: functional, organism-based
Toxoplasma gondii [17] = assay: Antiparasitic activity against Toxoplasma gondii RH infected in Kunming mouse assessed as inhibition of number of intraperitoneal tachyzoite in abdominal cavity at 200 mg/kg, po qd administered via gavage for 4 consecutive days measured on day 5 by light microscopic analysis relative to control; assay type: functional

| Structure (SMILES) | IC50 (Toxoplasma gondii [1]) [µM] | IC50 (HeLa) [µM] | selectivity ratio [2] | other results |
| --- | --- | --- | --- | --- |
| COC(=O)[C@@H](NC(=O)CCC(=O)Oc1ccc(C[C@H]2C(=O)OC[C@@H]2Cc2ccc(OC)c(OC)c2)cc1OC)C(C)C | 32.7 | 64 | 1.96 | – |
| COc1ccc(C[C@H]2COC(=O)[C@@H]2Cc2ccc(OCc3cn(-c4ccc(F)cc4)nn3)c(OC)c2)cc1OC | ≥ 600 | ≥ 600 | – | – |
| COc1ccc(C[C@H]2COC(=O)[C@@H]2Cc2ccc(OC(=O)CCC(=O)N3CCCC3)c(OC)c2)cc1OC | 115 | 201 | 1.74 | – |
| COC(=O)[C@@H](NC(=O)CCC(=O)Oc1ccc(C[C@H]2C(=O)OC[C@@H]2Cc2ccc(OC)c(OC)c2)cc1OC)c1ccccc1 | 84.4 | 78.1 | 0.92 | – |
| COC(=O)[C@H](CCSC)NC(=O)CCC(=O)Oc1ccc(C[C@H]2C(=O)OC[C@@H]2Cc2ccc(OC)c(OC)c2)cc1OC | 165 | 199 | 1.2 | – |
| COc1ccc(C[C@H]2COC(=O)[C@@H]2Cc2ccc(OCC(=O)N3CCCCC3)c(OC)c2)cc1OC | 313 | 293 | 0.94 | – |
| CCN(CC)C(=O)CCC(=O)Oc1ccc(C[C@H]2C(=O)OC[C@@H]2Cc2ccc(OC)c(OC)c2)cc1OC | 206 | 213 | 1.04 | – |
| COc1ccc(C[C@H]2COC(=O)[C@@H]2Cc2ccc(OCc3cn(-c4ccccc4)nn3)c(OC)c2)cc1OC | 136 | 124 | 0.92 | – |
| COc1ccc(C[C@H]2COC(=O)[C@@H]2Cc2ccc(OCC(=O)N3CCCC3)c(OC)c2)cc1OC | 336 | ≥ 600 | > 1.78 | – |
| COc1ccc(-n2cc(COc3ccc(C[C@H]4C(=O)OC[C@@H]4Cc4ccc(OC)c(OC)c4)cc3OC)nn2)cc1 | ≥ 600 | ≥ 600 | – | – |
| CCN1CCN(C(=O)CCC(=O)Oc2ccc(C[C@H]3C(=O)OC[C@@H]3Cc3ccc(OC)c(OC)c3)cc2OC)CC1 | 94.4 | 190 | 2.01 | – |
| CCN(CC)C(=O)COc1ccc(C[C@H]2C(=O)OC[C@@H]2Cc2ccc(OC)c(OC)c2)cc1OC | 388 | 188 | 0.48 | – |
| COc1ccc(C[C@H]2COC(=O)[C@@H]2Cc2ccc(OCc3cn(-c4ccc(Br)cc4)nn3)c(OC)c2)cc1OC | 429 | 128 | 0.3 | – |
| COc1ccc(C[C@H]2COC(=O)[C@@H]2Cc2ccc(OCc3cn(Cc4ccc(Cl)cc4)nn3)c(OC)c2)cc1OC | 251 | 242 | 0.97 | – |
| COc1ccc(C[C@H]2COC(=O)[C@@H]2Cc2ccc(OCC(=O)N3CCOCC3)c(OC)c2)cc1OC | ≥ 600 | ≥ 600 | – | – |
| COc1ccc(C[C@H]2COC(=O)[C@@H]2Cc2ccc(OCc3cn(Cc4ccccc4)nn3)c(OC)c2)cc1OC | 651 | 346 | 0.53 | – |

| Structure (SMILES) | IC50 (Toxoplasma gondii [1]) [µM] | IC50 (HeLa) [µM] | selectivity ratio [2] | other results |
| --- | --- | --- | --- | --- |
| COc1ccc(C[C@H]2COC(=O)[C@@H]2Cc2ccc(OC(=O)CCC(=O)N3CCCCC3)c(OC)c2)cc1OC | 41 | 128 | 3.12 | – |
| COc1ccc(C[C@H]2COC(=O)[C@@H]2Cc2ccc(OCc3cn(-c4cccc(Cl)c4)nn3)c(OC)c2)cc1OC | 269 | 493 | 1.83 | – |
| COC(=O)[C@@H]1CCCN1C(=O)CCC(=O)Oc1ccc(C[C@H]2C(=O)OC[C@@H]2Cc2ccc(OC)c(OC)c2)cc1OC | 43.9 | 145 | 3.31 | – |
| COc1ccc(C[C@H]2COC(=O)[C@@H]2Cc2ccc(OCc3cn(Cc4ccccc4F)nn3)c(OC)c2)cc1OC | 17.1 | ≥ 600 | > 35.1 | survival at 100 µM (Toxoplasma gondii [3]): 68.4%; inhibition in vivo at 100 mg/kg (Toxoplasma gondii [4]): 66.9%; Activity (Toxoplasma gondii [5]): Active; Activity (Toxoplasma gondii [6]): Active; Activity (Toxoplasma gondii [7]): inactive; Activity (Toxoplasma gondii [8]): Active; Activity (Toxoplasma gondii [9]): Active; Activity (Toxoplasma gondii [10]): Active; Activity (Toxoplasma gondii [11]): Active; survival at 100 mg/kg (Toxoplasma gondii [12]): 16%; mortality (Toxoplasma gondii [13]): 10 days; Activity (Toxoplasma gondii [14]): 28.4% |
| COC(=O)[C@H](CC(C)C)NC(=O)CCC(=O)Oc1ccc(C[C@H]2C(=O)OC[C@@H]2Cc2ccc(OC)c(OC)c2)cc1OC | 62.5 | 53.2 | 0.85 | – |
| COc1ccc(C[C@H]2COC(=O)[C@@H]2Cc2ccc(OCc3cn(-c4ccc(C)cc4)nn3)c(OC)c2)cc1OC | 366 | ≥ 600 | > 1.64 | – |
| COC(=O)[C@H](Cc1ccccc1)NC(=O)CCC(=O)Oc1ccc(C[C@H]2C(=O)OC[C@@H]2Cc2ccc(OC)c(OC)c2)cc1OC | ≥ 600 | ≥ 600 | – | – |
| COc1ccc(C[C@H]2COC(=O)[C@@H]2Cc2ccc(OCC(=O)Nc3ccc(C)cc3)c(OC)c2)cc1OC | 322 | 228 | 0.71 | – |
| COc1ccc(C[C@H]2COC(=O)[C@@H]2Cc2ccc(OCc3cn(Cc4ccccc4Cl)nn3)c(OC)c2)cc1OC | 24.3 | 84.5 | 3.48 | – |
| COC(=O)CNC(=O)CCC(=O)Oc1ccc(C[C@H]2C(=O)OC[C@@H]2Cc2ccc(OC)c(OC)c2)cc1OC | 157 | 179 | 1.14 | – |
| COC(=O)CC[C@H](NC(=O)CCC(=O)Oc1ccc(C[C@H]2C(=O)OC[C@@H]2Cc2ccc(OC)c(OC)c2)cc1OC)C(=O)OC | 157 | 95.7 | 0.61 | – |
| COc1ccc(C[C@H]2COC(=O)[C@@H]2Cc2ccc(OCc3cn(-c4ccc(Cl)cc4)nn3)c(OC)c2)cc1OC | 278 | 279 | 1 | – |
| COc1ccc(C[C@H]2COC(=O)[C@@H]2Cc2ccc(OCc3cn(Cc4ccc(F)cc4)nn3)c(OC)c2)cc1OC | ≥ 600 | 198 | < 0.33 | – |
| COc1cc(C[C@H]2C(=O)OC[C@@H]2Cc2ccc(OC)c(OC)c2)ccc1O [ARCTIGENIN] | 586 | 573 | 0.98 | Activity (Toxoplasma gondii [15]): Active; Activity (Toxoplasma gondii [16]): Active; inhibition in vivo at 100 mg/kg (Toxoplasma gondii [4]): 75.9%; inhibition (Toxoplasma gondii [17]): Active; Activity (Toxoplasma gondii [5]): Active; Activity (Toxoplasma gondii [7]): inactive; Activity (Toxoplasma gondii [8]): Active; Activity (Toxoplasma gondii [10]): Active; Activity (Toxoplasma gondii [11]): Active; survival at 100 mg/kg (Toxoplasma gondii [12]): 16%; mortality (Toxoplasma gondii [13]): 10 days; Activity (Toxoplasma gondii [14]): 18.4% |
| COC(=O)[C@@H](Cc1ccccc1)NC(=O)CCC(=O)Oc1ccc(C[C@H]2C(=O)OC[C@@H]2Cc2ccc(OC)c(OC)c2)cc1OC | 226 | 357 | 1.58 | – |
